Here are results for one molecule from US20190365675A1, “COMPOSITIONS FOR THE PREVENTION AND/OR TREATMENT OF ALCOHOL USE DISORDERS” (SERVICIO ANDALUZ DE SALUD, priority 2016, published 2019).

The test system of one experiment is MyD88. In words: MyD88 protein expression in frontal cortex after ethanol intoxication. In kind it is in vivo, Wistar rats. The note with it: 2-4 h after last ethanol, OEA pre-treatment. As for the experimental part: The animals were treated with intragastric (i.g.) ethanol 3 times a day using an i.g. cannula (16G needle, Fisher Scientific, Waltham, Mass., USA), following a protocol based on a slightly modified standard 4-day alcohol intoxication pattern (Bernier et al., 2002a, b) (FIG. 1A). The ethanol doses were administered every 8 h for a total time of 4 days. The rats treated with ethanol received an initial loading dose of 5 g/kg of ethanol in a 30% solution (w/v) and then a maximum maintenance dose of 3 g/kg, which were determined based on blood ethanol levels (BEL). This repeated standard alcohol intoxication paradigm kept BEL intoxication relatively constant in a range of sedation/ataxia (190 to 430 mg/dl, Table 3), according to the 6-point alcohol intoxication behavior scale (Majchrowicz, 1975). The mean dose of ethanol/rat/day (days 1-4) was 7.06 g/kg, similar to other studies (Obernier et al., 2002a, b). OEA (5 mg/kg, i.p., except initial dose of 10 mg/kg i.p.; synthesized as described in Giuffrida et al., 2000) was dissolved in the vehicle (5% Tween-80 in saline solution) and injected 10 minutes before each of the administrations of ethanol by an intragastric gavage. […] The autoradiograph was quantified by densitometry (NIH ImageJ® software, National Biosciences, Lincoln, Nebr. USA) and expressed as optical density (OD). […]

The subject of another experiment is caspase-3. The experiment in a line: Caspase-3 mRNA, protein and activity (fluorometric assay) in frontal cortex after ethanol intoxication. In kind it is in vivo, Wistar rats. The note with it: OEA pre-treatment. The procedure: The animals were treated with intragastric (i.g.) ethanol 3 times a day using an i.g. cannula (16G needle, Fisher Scientific, Waltham, Mass., USA), following a protocol based on a slightly modified standard 4-day alcohol intoxication pattern (Bernier et al., 2002a, b) (FIG. 1A). The ethanol doses were administered every 8 h for a total time of 4 days. The rats treated with ethanol received an initial loading dose of 5 g/kg of ethanol in a 30% solution (w/v) and then a maximum maintenance dose of 3 g/kg, which were determined based on blood ethanol levels (BEL). This repeated standard alcohol intoxication paradigm kept BEL intoxication relatively constant in a range of sedation/ataxia (190 to 430 mg/dl, Table 3), according to the 6-point alcohol intoxication behavior scale (Majchrowicz, 1975). The mean dose of ethanol/rat/day (days 1-4) was 7.06 g/kg, similar to other studies (Obernier et al., 2002a, b). OEA (5 mg/kg, i.p., except initial dose of 10 mg/kg i.p.; synthesized as described in Giuffrida et al., 2000) was dissolved in the vehicle (5% Tween-80 in saline solution) and injected 10 minutes before each of the administrations of ethanol by an intragastric gavage. The anti-inflammatory activity of OEA at 10 mg/kg per intraperitoneal route in the frontal cortex before the injection of LPS (Sayd et al., 2014) was previously referred to. In this study, OEA is repeatedly injected as a pre-treatment before each administration of ethanol. The doses of OEA chosen in this study are in the range of doses tested as being pharmacologically active (5-20 mg/kg, i.p.) (Bilbao et al., 2015). […] The autoradiograph was quantified by densitometry (NIH ImageJ® software, National Biosciences, Lincoln, Nebr. USA) and expressed as optical density (OD). […] The quantitative changes in mRNA levels were estimated by means of RT-PCR, carried out in the presence of the SYBR green primer using a 20-L reaction in a Rotor-Gene (Corbett Research®, Mortlake, NSW, Australia). […] Caspase-3 activity was determined using a fluorometric assay kit (Abnova®, Taiwan) according to the manufacturer's protocol. […]

For the molecule `CCCCCCCC/C=C\CCCCCCCC(=O)NCCO` [OEA, oleoylethanolamide], the “Ethanol-induced increase in expression of MyD88 protein” value in the experiment with MyD88 is listed as “inhibited”. In the experiment on caspase-3, the “Alcohol-induced overexpression of caspase-3 mRNA” value is listed as “unable to prevent” and the “Ethanol-induced overexpression of caspase-3 protein” value was “prevented”. Also, in the experiment with caspase-3 (fluorometric assay), the “Ethanol-induced increase in activity of caspase-3” value is recorded as “reverted”.
